13 molecules from patent US20230159496A1, “COMPOUNDS AND METHODS FOR MODULATING SPLICING” (REMIX THERAPEUTICS INC., priority 2020, published 2023) can be followed below.

Read-outs that look alike come from different tables or passages of the source. Where only a bound is given, the exact number is not on record here.

Common to all, as to type: cell-based
The test system of test [1] is SMN2 CJ mRNA. Briefly: Gene panel canonical junction qPCR assay, SMN2. Conditions: decrease in CJ mRNA levels, gene panel; read-out: SMN2 IC50. The procedure, abridged:
(§1)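 A673 or K562 cells were treated for 24 h at 37 °C with an 11-point 3-fold dilution, top dose 10 uM, DMSO ≤0.25%. Canonical junction mRNA in lysates was quantified by one-step RT-qPCR and normalized to GAPDH, GUSB or PPIA.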
(Real-time PCR tracks product formation cycle by cycle.)

Test [2] has as its system HTT mRNA. Briefly: Splicing assay (RT-qPCR) monitoring HTT canonical junction (CJ) and alternative junction (AJ) mRNA isoforms. Particulars: A673 or K562 cells, 24 h treatment, top dose 10 uM. The procedure, abridged: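 A673 or K562 cells treated 24 h at 37 °C with an 11-point 3-fold dilution (top 10 uM final, DMSO ≤0.25%). Lysates assayed by one-step RT-qPCR for HTT CJ and AJ isoforms, normalized to GAPDH, GUSB (K562) or PPIA (A673).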

For test [3], the system named is Target C CJ mRNA. Briefly: Gene panel canonical junction qPCR assay, Target C. Conditions: decrease in CJ mRNA levels, gene panel; read-out: Target C IC50. The essentials: as §1
Test [4] relates to HTT CJ mRNA. Description: Gene panel canonical junction qPCR assay, HTT. Particulars: decrease in CJ mRNA levels, gene panel; read-out: HTT IC50. The essentials:
as §1

[5] abbreviates: decrease in CJ mRNA (50% response), read-out: HTT CJ AC50.
[6] abbreviates: increase in AJ mRNA (50% response), read-out: HTT AJ AC50.

`O=C1c2ccc(-c3cn[nH]c3)cc2CCN1C1CCNCC1` [Compound 220]: the IC50 in test [1], in test [3] and in test [4] was over 10000 nM each time. Besides, the AC50 in test [2] (setting [5]) and in test [2] (setting [6]) was over 10000 nM each time.

`Cc1nc2c(F)cc(-c3ccc4c(=O)n(C5CCNCC5)cnc4c3)cc2o1` [Compound 245]: the IC50 was under 100 nM in test [1], 100 to 1000 nM in test [3] and 100 to 1000 nM in test [4]. For the same molecule, the AC50 in test [2] (setting [5]) and in test [2] (setting [6]) was 100 to 1000 nM throughout.

For `Cc1cn2cc(-c3ccc4c(=O)n(C5CCNCC5)ncc4c3)ncc2n1` [Compound 255], the IC50 in test [1] was 100 to 1000 nM; in test [3], over 10000 nM; in test [4] it was 1000 to 10000 nM. The AC50 in test [2] (setting [5]) and in test [2] (setting [6]) was 1000 to 10000 nM each time.

For `Cc1nc2c(F)cc(-c3ccc4c(=O)n(C5CCNCC5)ncc4c3)cc2o1` [Compound 250], the IC50 in test [1] is under 100 nM; in test [3], 100 to 1000 nM; in test [4], under 100 nM. Further, the half-maximal activity concentration (AC50) in test [2] (setting [5]) and in test [2] (setting [6]) was under 100 nM each time.

On to `Cc1cn2cc(-c3ccc4c(=O)n(C5CCNCC5)ncc4c3)cc(F)c2n1` [Compound 248, 6-[8-fluoro-2-methylimidazo[1,2-a]pyridin-6-yl]-2-(piperidin-4-yl)phthalazin-1-one], for which the IC50 in test [1] is under 100 nM; in test [3], 100 to 1000 nM; in test [4], under 100 nM. Further, the AC50 in test [2] (setting [5]) was under 100 nM; in test [2] (setting [6]) it was 100 to 1000 nM.

Turning to `Cc1cn2nc(-c3ccc4c(c3)CCN([C@@H]3CCN[C@H](C)C3)C4=O)cc(C)c2n1` [Compound 281], the results for the IC50 in test [1], in test [3] and in test [4] were 100 to 1000 nM, 1000 to 10000 nM and 1000 to 10000 nM, respectively. For the same molecule, the AC50 in test [2] (setting [5]) and in test [2] (setting [6]) was 1000 to 10000 nM each time.

Regarding `Cc1cn2nc(-c3ccc4c(=O)n(C5CCNC5)ncc4c3)cc(C)c2n1` (centres unmarked) [Compound 264, 6-{2,8-dimethylimidazo[1,2-b]pyridazin-6-yl}-2-(pyrrolidin-3-yl)phthalazin-1-one], the IC50 in test [1] was 100 to 1000 nM; in test [3] it was over 10000 nM; in test [4], 1000 to 10000 nM. Moreover, the AC50 in test [2] (setting [5]) and in test [2] (setting [6]) was 1000 to 10000 nM in each case.

Take `Cc1nc2c(F)cc(-c3ccc4c(=O)n(C5CCN(C)CC5)cnc4c3)cc2o1` [Compound 300]: the results for the IC50 in test [1], in test [3] and in test [4] were under 100 nM, 1000 to 10000 nM and 100 to 1000 nM, respectively. Moreover, the AC50 in test [2] (setting [5]) was 100 to 1000 nM; in test [2] (setting [6]), 1000 to 10000 nM.

Consider `CC[C@@H]1C[C@H](n2ncc3cc(-c4cc(C)c5nc(C)cn5n4)ccc3c2=O)CCN1` [Compound 304, 6-{2,8-dimethylimidazo[1,2-b]pyridazin-6-yl}-2-[(2R,4R)-2-ethylpiperidin-4-yl]phthalazin-1-one], for which the IC50 is under 100 nM in test [1], 1000 to 10000 nM in test [3] and 100 to 1000 nM in test [4]. Besides, the AC50 in test [2] (setting [5]) and in test [2] (setting [6]) was 1000 to 10000 nM throughout.

For `Cc1cn2nc(-n3cnc4cc(N5CCNCC5)ccc4c3=O)cc(C)c2n1` [Compound 241, 3-(2,8-dimethylimidazo[1,2-b]pyridazin-6-yl)-7-(piperazin-1-yl)quinazolin-4(3H)-one], the IC50 in test [1], in test [3] and in test [4] was 1000 to 10000 nM in each case. The half-maximal activity concentration (AC50) in test [2] (setting [5]) and in test [2] (setting [6]) was 1000 to 10000 nM each time.

As to `CN1C2C=C(c3ccc4c(=O)n(-c5ccc6nn(C)cc6c5)cnc4c3)CC1CC2` (centres unmarked) [Compound 161, 3-(2-methyl-2H-indazol-5-yl)-7-(8-methyl-8-azabicyclo[3.2.1]oct-2-en-3-yl)quinazolin-4(3H)-one], the IC50 in test [1], in test [3] and in test [4] was over 10000 nM each time. The AC50 in test [2] (setting [5]) and in test [2] (setting [6]) was over 10000 nM each time.

Turning to `CN1CCC(c2ccc3c(=O)n(-c4ccc5nn(C)cc5c4)cnc3c2)CC1` [Compound 177, 3-(2-methyl-2H-indazol-5-yl)-7-(1-methylpiperidin-4-yl)quinazolin-4(3H)-one], the values for the IC50 in test [1], in test [3] and in test [4] were over 10000 nM, 1000 to 10000 nM and over 10000 nM, respectively. For the same molecule, the AC50 in test [2] (setting [5]) and in test [2] (setting [6]) was over 10000 nM in each case.

Take `Cc1cc(-c2ccc3c(=O)n(C4CC(C)(C)NC(C)(C)C4)cnc3n2)cc2cn(C)nc12` [Compound 179]: the IC50 in test [1] is 1000 to 10000 nM; in test [3] it was over 10000 nM; in test [4], over 10000 nM. Moreover, the AC50 in test [2] (setting [5]) and in test [2] (setting [6]) was over 10000 nM throughout.

In general, IC50 refers to the concentration needed to halve the response being measured. By AC50 is commonly meant the concentration at which the activity in the assay is half-maximal.
